In the supplement of paper PMC11061612:

Experiments:
Experiment in all cases: Bliss excess, mean over the matrix (fraction); higher = more synergy
[1] = test system: KP-4 (Pancreatic Carcinoma)
Method in brief: (§1)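 After 24 hours at 37°C and 5% CO2 in 1536-well plates, cells in DMEM/F12 or RPMI plus 10% FBS received two-drug dose matrices for 72 hours. Viability came from CellTiter-Glo 2.0 luminescence and was scaled as inhibition, anchored at 0 by vehicle wells and at 1 by blank wells. Combination Emax is taken as the second-highest inhibition in the matrix, and Bliss excess as the observed combination effect less EA + EB − EA·EB, with EA and EB the single-agent effects.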

AM-38 (Glioblastoma) = test system: AM-38 (Glioblastoma)
Method in brief: as §1

[2] = test system: SK-CO-1 (Colorectal Carcinoma)
Method in brief: as §1

[3] = test system: NCI-H1963 (Small Cell Lung Carcinoma)
Method in brief: as §1

[4] = test system: NCI-H596 (Other Solid Carcinomas)
Method in brief: as §1

GAK (Melanoma) = test system: GAK (Melanoma)
Method in brief: as §1

[5] = test system: Raji (Burkitt's Lymphoma)
Method in brief: as §1

[6] = test system: NAMALWA (Burkitt's Lymphoma)
Method in brief: as §1

[7] = test system: NMC-G1 (Low Grade Glioma)
Method in brief: as §1

[8] = test system: SCC-4 (Oral Cavity Carcinoma)
Method in brief: as §1

[9] = test system: P30-OHK (B-Lymphoblastic Leukemia)
Method in brief: as §1

WM35 (Melanoma) = test system: WM35 (Melanoma)
Method in brief: as §1

[10] = test system: SNU-C2B (Colorectal Carcinoma)
Method in brief: as §1

SK-N-SH (Neuroblastoma) = test system: SK-N-SH (Neuroblastoma)
Method in brief: as §1

[11] = test system: CL-11 (Colorectal Carcinoma)
Method in brief: as §1

[12] = test system: OAW-28 (Ovarian Carcinoma)
Method in brief: as §1

[13] = test system: IA-LM (Non-Small Cell Lung Carcinoma)
Method in brief: as §1

[14] = test system: BHT-101 (Thyroid Gland Carcinoma)
Method in brief: as §1

[15] = test system: SKG-IIIa (Cervical Carcinoma)
Method in brief: as §1

NB1 (Neuroblastoma) = test system: NB1 (Neuroblastoma)
Method in brief: as §1

Row | Structure (SMILES) | Bliss excess [1] | Bliss excess (AM-38 (Glioblastoma)) | Bliss excess [2] | Bliss excess [3] | Bliss excess [4] | Bliss excess (GAK (Melanoma)) | Bliss excess [5] | Bliss excess [6] | Bliss excess [7] | Bliss excess [8] | Bliss excess [9] | Bliss excess (WM35 (Melanoma)) | Bliss excess [10] | Bliss excess (SK-N-SH (Neuroblastoma)) | Bliss excess [11] | Bliss excess [12] | Bliss excess [13] | Bliss excess [14] | Bliss excess [15] | Bliss excess (NB1 (Neuroblastoma))
1 | COc1cccc(OCCCN)c1-c1cc(Nc2cnc(C#N)cn2)n[nH]1 [Prexasertib] + C=CCn1c(=O)c2cnc(Nc3ccc(N4CCN(C)CC4)cc3)nc2n1-c1cccc(C(C)(C)O)n1 [AZD1775] (first compound max 1 µM, partner max 1 µM) | 0.0861 | 0.0907 | 0.0582 | 0.068 | 0.0087 | 0.0832 | 0.0907 | 0.06 | -0.0285 | -0.0358 | 0.0398 | 0.0668 | -0.0336 | 0.0025 | -0.0496 | 0.0319 | 0.0573 | 0.136 | -0.006 | 0.0693
2 | CN(C)CCCOc1ccc(-c2ccc3ncc4c(c3c2)n(C2CCOCC2)c(=O)n4C)cn1 [AZD0156] + CCN(CCO)CCCOc1ccc2c(Nc3cc(CC(=O)Nc4cccc(F)c4)[nH]n3)ncnc2c1 [AZD2811] (first compound max 1 µM, 7x7, partner max 1 µM) | -0.0162 | 0.0165 | 0.0205 | -0.0463 | -0.005 | -0.0025 | 0.0082 | 0.0323 | -0.0855 | -0.0668 | -0.0439 | -0.0426 | -0.0227 | -0.0133 | -0.0288 | -0.0061 | -0.0326 | -0.0273 | -0.05 | -0.0137
3 | COc1cccc(OCCCN)c1-c1cc(Nc2cnc(C#N)cn2)n[nH]1 [Prexasertib] + CCc1c2c(nc3ccc(O)cc13)-c1cc3c(c(=O)n1C2)COC(=O)[C@]3(O)CC [SN-38] (first compound max 1 µM, 7x7, partner max 0.3 µM) | 0.0454 | -0.0317 | -0.074 | 0.0138 | 0.0625 | 0.0087 | -0.0279 | -0.0197 | -0.105 | 0.0021 | -0.0164 | -0.0582 | -0.0388 | -0.0778 | 0.0172 | -0.0269 | -0.0012 | 0.0077 | 0.0683 | -0.0529
4 | C=CCn1c(=O)c2cnc(Nc3ccc(N4CCN(C)CC4)cc3)nc2n1-c1cccc(C(C)(C)O)n1 [AZD1775] + O=C(c1cc(Cc2n[nH]c(=O)c3ccccc23)ccc1F)N1CCN(C(=O)C2CC2)CC1 [Olaparib] (first compound max 1 µM, partner max 10 µM) | -0.0373 | -0.0018 | -0.0858 | -0.0252 | -0.0963 | -0.0243 | -0.016 | -0.0133 | -0.0352 | -0.0341 | -0.0021 | -0.0146 | 0.0056 | -0.0947 | -0.0099 | -0.0237 | -0.0513 | -0.0568 | -0.0648 | -0.0795
5 | CN(CCO)CC[C@H](CSc1ccccc1)Nc1ccc(S(=O)(=O)NC(=O)c2ccc(N3CCC([C@@H](O)c4ccccc4-c4ccc(Cl)cc4)CC3)cc2)cc1S(=O)(=O)C(F)(F)F [AZD4320] + C[C@@H]1COCCN1C2=NC(=NC(=C2)C3(CC3)[S@](=N)(=O)C)C4=C5C=CNC5=NC=C4 [AZD6738] (first compound max 1 µM, 7x7, partner max 10 µM) | -0.0444 | 0.0052 | -0.0858 | 0.0129 | -0.047 | 0.0029 | 0.0056 | 0.0006 | -0.0724 | -0.0961 | 0.0653 | -0.0182 | -0.0292 | -0.0586 | 0.0073 | 0.0382 | -0.0404 | -0.0067 | -0.0302 | -0.0023
6 | CC1(C)CCC(CN2CCN(c3ccc(C(=O)NS(=O)(=O)c4ccc(NCC5CCOCC5)c([N+](=O)[O-])c4)c(Oc4cnc5[nH]ccc5c4)c3)CC2)=C(c2ccc(Cl)cc2)C1 [Venetoclax] + CN(C)CCCOc1ccc(-c2ccc3ncc4c(c3c2)n(C2CCOCC2)c(=O)n4C)cn1 [AZD0156] (first compound max 1 µM, 7x7, partner max 1 µM) | -0.0344 | -0.0183 | -0.0119 | 0.0715 | -0.0377 | -0.0378 | 0.0279 | 0.0387 | -0.0373 | -0.024 | 0.0881 | -0.0197 | -0.0135 | -0.0542 | -0.0419 | 0.0076 | -0.0238 | -0.0272 | -0.0418 | -0.0278
7 | Cc1cc2ncnn2cc1Nc1ncc2c(n1)n(C1CCOCC1)c(=O)n2C [AZD7648] + O=C(c1cc(Cc2n[nH]c(=O)c3ccccc23)ccc1F)N1CCN(C(=O)C2CC2)CC1 [Olaparib] (first compound max 10 µM, 7x7, partner max 10 µM) | -0.0225 | 0.0174 | -0.0466 | -0.0052 | -0.0384 | -0.0379 | 0.0011 | -0.0119 | -0.0538 | -0.0422 | 0.0285 | -0.0239 | -0.0432 | 0.0056 | -0.0464 | -0.0127 | -0.042 | -0.0071 | -0.0678 | -0.0431
8 | CCN(CCO)CCCOc1ccc2c(Nc3cc(CC(=O)Nc4cccc(F)c4)[nH]n3)ncnc2c1 [AZD2811] + C=CCn1c(=O)c2cnc(Nc3ccc(N4CCN(C)CC4)cc3)nc2n1-c1cccc(C(C)(C)O)n1 [AZD1775] (first compound max 1 µM, partner max 1 µM) | 0.0441 | 0.0107 | -0.0559 | -0.0448 | 0.0114 | -0.0522 | 0.0278 | -0.0101 | -0.0847 | -0.0024 | -0.0412 | -0.0098 | -0.0602 | -0.0544 | 0.0034 | 0.0277 | 0.0064 | 0.0043 | -0.0142 | -0.0433
9 | CC1(C)CCC(CN2CCN(c3ccc(C(=O)NS(=O)(=O)c4ccc(NCC5CCOCC5)c([N+](=O)[O-])c4)c(Oc4cnc5[nH]ccc5c4)c3)CC2)=C(c2ccc(Cl)cc2)C1 [Venetoclax] + Cc1cc2ncnn2cc1Nc1ncc2c(n1)n(C1CCOCC1)c(=O)n2C [AZD7648] (first compound max 1 µM, 7x7, partner max 10 µM) | -0.061 | -0.0098 | -0.018 | 0.109 | -0.0119 | -0.0209 | 0.0289 | -0.0246 | -0.0508 | -0.0674 | 0.0584 | -0.0209 | 0.0034 | -0.0125 | -0.0255 | 0.0005 | 0.0086 | -0.0011 | 0.0161 | -0.0358
10 | Cc1cc2ncnn2cc1Nc1ncc2c(n1)n(C1CCOCC1)c(=O)n2C [AZD7648] + CCN(CCO)CCCOc1ccc2c(Nc3cc(CC(=O)Nc4cccc(F)c4)[nH]n3)ncnc2c1 [AZD2811] (first compound max 10 µM, 7x7, partner max 1 µM) | -0.0425 | 0.0106 | -0.0524 | -0.0146 | -0.0576 | -0.035 | 0.0312 | 0.114 | -0.0407 | -0.0526 | -0.0267 | -0.0036 | 0.0265 | 0.0001 | 0.0274 | 0.0284 | 0.0156 | -0.0091 | -0.0161 | -0.0026
11 | CN(CCO)CC[C@H](CSc1ccccc1)Nc1ccc(S(=O)(=O)NC(=O)c2ccc(N3CCC([C@@H](O)c4ccccc4-c4ccc(Cl)cc4)CC3)cc2)cc1S(=O)(=O)C(F)(F)F [AZD4320] + Cc1cc2ncnn2cc1Nc1ncc2c(n1)n(C1CCOCC1)c(=O)n2C [AZD7648] (first compound max 1 µM, 7x7, partner max 10 µM) | -0.0578 | -0.003 | -0.0224 | 0.0483 | -0.0422 | 0.0066 | 0.0189 | 0.0013 | -0.0452 | -0.0568 | 0.0216 | -0.0122 | -0.0126 | 0.0283 | -0.033 | -0.0348 | -0.0482 | -0.0361 | -0.0614 | -0.0148
12 | CCN(CCO)CCCOc1ccc2c(Nc3cc(CC(=O)Nc4cccc(F)c4)[nH]n3)ncnc2c1 [AZD2811] + O=C(c1cc(Cc2n[nH]c(=O)c3ccccc23)ccc1F)N1CCN(C(=O)C2CC2)CC1 [Olaparib] (first compound max 1 µM, 7x7, partner max 10 µM) | 0.0525 | 0.0471 | 0.0223 | -0.0623 | -0.0372 | -0.0049 | 0.0005 | 0.0548 | -0.025 | -0.0447 | -0.04 | 0.0069 | -0.014 | -0.0701 | 0.0084 | -0.0474 | -0.031 | -0.0193 | -0.0286 | -0.0581
13 | Cc1c2c(nn1C)CSCc1cc(n(C)n1)CSc1cc(c3ccccc3c1)OCCCc1c(C(=O)O)n(C)c3c-2c(Cl)ccc13 [AZD5991] + Cc1cc2ncnn2cc1Nc1ncc2c(n1)n(C1CCOCC1)c(=O)n2C [AZD7648] (first compound max 1 µM, 7x7, partner max 10 µM) | -0.0261 | -0.0347 | -0.0402 | -0.0169 | 0.0056 | -0.021 | 0.0794 | -0.0286 | -0.0606 | -0.0269 | -0.0222 | -0.0073 | -0.012 | -0.0211 | -0.0533 | 0.0125 | -0.0226 | -0.0308 | -0.0261 | -0.0197
14 | Cc1c2c(nn1C)CSCc1cc(n(C)n1)CSc1cc(c3ccccc3c1)OCCCc1c(C(=O)O)n(C)c3c-2c(Cl)ccc13 [AZD5991] + C=CCn1c(=O)c2cnc(Nc3ccc(N4CCN(C)CC4)cc3)nc2n1-c1cccc(C(C)(C)O)n1 [AZD1775] (first compound max 1 µM, partner max 1 µM) | -0.0245 | -0.0015 | -0.0425 | 0.0006 | -0.0682 | -0.0077 | -0.013 | 0.0017 | -0.0012 | 0.0917 | 0.0077 | 0.027 | 0.0194 | -0.0163 | -0.0112 | 0.0049 | -0.0011 | 0.0811 | 0.0071 | -0.0156
